Assay results from patent US9925263B2, “Liquid pharmaceutical formulations for injection comprising procaine and uses thereof” (EAGLE BIOLOGICS, INC., priority 2013, dated 2018).
Counter-ions that a name gives are not always drawn. Like-named read-outs stand apart in the source and are kept apart here.

Legend:
[1] = tested on: biosimilar AVASTIN®; assay: Viscosity of aqueous solutions of biosimilar AVASTIN® with viscosity-lowering agents; type: physicochemical; details: for Magnitude of viscosity-lowering effect (replacement of PB with CSAL): 0.25 M
Experimental: (§1) (unless otherwise indicated).
The protein was formulated to contain either 0.25 M phosphate buffer or 0.25 M CSAL.
(§2) Subsequently, the appropriate amount of viscosity-lowering agent was added to result in a final viscosity-lowering agent concentration of 0.15-0.35 M upon reconstitution.
The viscosity-lowering agent(s) were added in an amount sufficient to give concentration upon reconstitution as specified below. In cases of combinations of agents, the concentration of each component is 0.15 M. The protein solutions were then freeze-dried.

[2] = tested on: TYSABRI®; assay: Viscosity of aqueous solutions of TYSABRI® with viscosity-lowering agents; type: physicochemical; details: 244 mg/mL TYSABRI; excipient 0.1 M; 25° C.
[3] = tested on: HERCEPTIN®; assay: Viscosity of aqueous solutions of HERCEPTIN® with viscosity-lowering agents; type: physicochemical; details: 25° C.
[4] = tested on: biosimilar AVASTIN®, TYSABRI®, HERCEPTIN®, biosimilar ERBITUX®, REMICADE®; details: thiamine HCl 0.1-0.25 M vs 0.25 M PB; Table 33
Experimental: (§4) All viscosities of well-mixed aqueous mAb solutions were measured using either a mVROC microfluidic viscometer (RheoSense) or a DV2T cone and plate viscometer (Brookfield; “C & P”) after a 5 minute equilibration at 25° C. […] The mVROC viscometer was equipped with an “A” or “B” chip, each manufactured with a 50 micron channel. Typically, 0.10 mL of protein solution was back-loaded into a gastight microlab instrument syringe (Hamilton; 100 μL), affixed to the chip, and measured at multiple flow rates, approximately 20%, 40%, and 60% of the maximum pressure for each chip. […] An average absolute viscosity and standard deviation was then calculated from at least these three measurements. The C & P viscometer was equipped with a CPE40 or CPE52 spindle (cone angle of 0.8° and 3.0°, respectively) and 0.50 mL samples were measured at multiple shear rates between 2 and 400 s^−1. Specifically, samples were measured for 30 seconds each at 22.58, 24.38, 26.25, 28.13, 30, 31.88, 45, 67.5, 90, 112.5, 135, 157.5, 180, 202.5, 247, 270, 292.5, 315, 337.5, 360, 382, 400 s^−1, starting at a shear rate that gave at least 10% torque, and continuing until instrument torque reached 100%. An extrapolated zero-shear viscosity was then determined from a plot of dynamic viscosity versus shear rate for the samples measured on a DV2T cone and plate viscometer. […]

[5] = tested on: ENBREL®
Experimental: All viscosities of well-mixed aqueous mAb solutions were measured using either a mVROC microfluidic viscometer (RheoSense) or a DV2T cone and plate viscometer (Brookfield; “C & P”) after a 5 minute equilibration at 25° C. […] The mVROC viscometer was equipped with an “A” or “B” chip, each manufactured with a 50 micron channel. Typically, 0.10 mL of protein solution was back-loaded into a gastight microlab instrument syringe (Hamilton; 100 μL), affixed to the chip, and measured at multiple flow rates, approximately 20%, 40%, and 60% of the maximum pressure for each chip. […] An average absolute viscosity and standard deviation was then calculated from at least these three measurements. The C & P viscometer was equipped with a CPE40 or CPE52 spindle (cone angle of 0.8° and 3.0°, respectively) and 0.50 mL samples were measured at multiple shear rates between 2 and 400 s^−1. Specifically, samples were measured for 30 seconds each at 22.58, 24.38, 26.25, 28.13, 30, 31.88, 45, 67.5, 90, 112.5, 135, 157.5, 180, 202.5, 247, 270, 292.5, 315, 337.5, 360, 382, 400 s^−1, starting at a shear rate that gave at least 10% torque, and continuing until instrument torque reached 100%. An extrapolated zero-shear viscosity was then determined from a plot of dynamic viscosity versus shear rate for the samples measured on a DV2T cone and plate viscometer. The extrapolated zero-shear viscosities reported are the average and standard deviation of at least three measurements.
ENBREL® obtained commercially and containing pharmaceutical excipients (Mannitol, Sucrose, Tromethamine) was purified, buffer exchanged, concentrated, dried, reconstituted, and analyzed as described in Example 1 above (using the extinction coefficient of 0.96 L/g·cm at 280 nm).

[6] = tested on: REMICADE®; assay: Viscosity of aqueous solutions of […]® with viscosity-lowering agents; type: physicochemical; details: 25° C.
Experimental: as §1
An extrapolated zero-shear viscosity was determined from a plot of absolute viscosity versus shear rate.
(§3) Following reconstitution, the viscosity of each solution was measured using the microfluidic viscometer as described in previous examples. The solutions were then back-loaded into 1 mL BD insulin syringes with 27, 29, or 31 gauge fixed needles. The force required to extrude the concentrated […]® solutions was then measured using an Instron at a rate of displacement equivalent to a fluid flow rate of 3 mL/min. The expelled solution was collected from the syringe and analyzed by size-exclusion chromatography.

[7] = tested on: SIMPONI ARIA®; details: […] thiamine HCl vs […] phosphate buffer; FIG. 9
Experimental: as §4

[8] = tested on: Crohn's and ulcerative colitis patients; details: studies evaluating long-term clinical outcomes; cited from earlier work
[9] = tested on: ARZERRA®; assay: Viscosity of aqueous solutions of ARZERRA® with viscosity-lowering agents; type: physicochemical; details: 0.25M agent, 25° C., pH 7.0
From the text: as §1

[10] = tested on: biosimilar RITUXAN®; assay: Viscosity of aqueous solutions of biosimilar RITUXAN® with viscosity-lowering agents;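 further: absolute viscosity of aqueous antibody solutions determined by microfluidic viscometry (mVROC chip, 50 micron channel) at several flow rates after 5 min equilibration, mean of at least three readings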
Experimental: All viscosities of well-mixed aqueous mAb solutions were measured using either a mVROC microfluidic viscometer (RheoSense) or a DV2T cone and plate viscometer (Brookfield; “C & P”) after a 5 minute equilibration at 25° C. […] The mVROC viscometer was equipped with an “A” or “B” chip, each manufactured with a 50 micron channel. Typically, 0.10 mL of protein solution was back-loaded into a gastight microlab instrument syringe (Hamilton; 100 μL), affixed to the chip, and measured at multiple flow rates, approximately 20%, 40%, and 60% of the maximum pressure for each chip. […] An average absolute viscosity and standard deviation was then calculated from at least these three measurements. The C & P viscometer was equipped with a CPE40 or CPE52 spindle (cone angle of 0.8° and 3.0°, respectively) and 0.50 mL samples were measured at multiple shear rates between 2 and 400 s^−1. […] An extrapolated zero-shear viscosity was then determined from a plot of dynamic viscosity versus shear rate for the samples measured on a DV2T cone and plate viscometer. The extrapolated zero-shear viscosities reported are the average and standard deviation of at least three measurements.
Viscosities were measured using a RheoSense mVROC microfluidic viscometer equipped with an “A” or “B” chip.

[11] = tested on: REMICADE®; assay: Monomer content of […]® solutions by size exclusion chromatography; type: physicochemical; details: 0.25M agent
Experimental: Biophysical properties of solutions of […]® formulated with 0.25 M CSAA were assessed over 90 days. Samples of […]® formulated with 0.25 M CSAA were prepared as described in Example 1 above.
as §3

[12] = tested on: REMICADE®; assay: Syringe extrusion force of concentrated […]® solutions (Instron); type: physicochemical; details: 1 mL BD insulin syringe, 3 mL/min, REMICADE 224-230 mg/mL, 0.25M agent
Experimental: as §3

[13] = tested on: biosimilar ERBITUX®; assay: Viscosity of aqueous solutions of biosimilar ERBITUX® with viscosity-lowering agents
[14] = tested on: bovine gamma globulin; assay: Viscosity of aqueous gamma globulin solutions on two viscometers; type: physicochemical; details: without CSAL, or with 0.25M CSAL (label CSAL), 25° C., pH 7.0
Experimental: as §1
Aqueous solutions containing 220 mg/mL […]® and 0.25 M CSAA were prepared as described above Example 1. The viscosities at 25° C. and pH 7.0 are reported in Table 29 as extrapolated zero-shear viscosities from cone and plate viscometer measurements and as absolute viscosities measured with a microfluidic viscometer. […] An extrapolated zero-shear viscosity was determined from a plot of absolute viscosity versus shear rate.
In order to compare a broader range of viscosities and protein concentrations, aqueous solutions of a model antibody, bovine gamma globulin, were prepared with and without 0.25 M CSAL. The viscosities were measured as described above at protein concentrations ranging from 110 mg/mL to 310 mg/mL.

[15] = tested on: branded AVASTIN®; assay: Viscosity of aqueous solutions of branded AVASTIN®; type: physicochemical; details: 205 ± 5 mg/mL mAb
Experimental: as §1, §2

[16] = 155 ± 5 mg/mL mAb, pH 7.0, 25° C., [CSAL] 0.25 M
[17] = 155 ± 5 mg/mL mAb, pH 7.0, 25° C., [CSAL] 0.38 M
[18] = 155 ± 5 mg/mL mAb, pH 7.0, 25° C., [CSAL] 0.50 M

Cc1ncc(C[n+]2csc(CCO)c2C)c(N)n1 [Thiamine HCl]
Viscosity ([1]; 190 mg/mL mAb, excipient 0.1 M, 25° C.): 31.5 ± 1.7 cP | Viscosity ([1]; 225 mg/mL mAb, excipient 0.25 M, 25° C.): 53.3 ± 6.8 cP | Viscosity [2]: 43.4 ± 0.7 cP | Viscosity ([3]; 218 mg/mL HERCEPTIN, excipient 0.1 M): 41.6 ± 0.5 cP | Viscosity ([3]; 245 mg/mL HERCEPTIN, 0.10M agent): 41.5 ± 0.5 cP | Viscosity reduction for each mAb [4]: greater than 4 fold | Viscosity ([5]; 212 ± 7 mg/mL ENBREL): 141 ± 3 | Viscosity ([5]; 250 ± 3 mg/mL ENBREL): 305 ± 7 | Viscosity ([5]; 271 ± 0 mg/mL ENBREL): 626 ± 32 | Viscosity reduction ([5]; […] thiamine HCl vs […] PB): up to 2 fold | Viscosity ([6]; 178 mg/mL REMICADE, excipient […]): 40.7 ± 0.3 cP | Viscosity gradient (increase in viscosity with mAb concentration) [7]: the viscosity gradient is reduced

Vedolizumab: mAb being developed by Millennium Pharmaceuticals for ulcerative colitis and Crohn's disease
Patients achieving clinical remission [8]: ~60%

camphorsulfonic acid 1-(3-aminopropyl)-2-methyl-1H-imidazole [CSAAPMI]
Viscosity ([9]; 245 ± 4 mg/mL ARZERRA): 53.6 ± 0.6 cP | Viscosity ([9]; 274 ± 10 mg/mL ARZERRA): 98.9 ± 0.7 cP | Viscosity reduction ([1]; ~230 mg/mL mAb, vs PB, Table 12): approximately 5 fold | Viscosity ([10]; 202 ± 2 mg/mL RITUXAN, 0.25M agent, 25° C., pH 7.0): 38.7 ± 0.7 | Viscosity ([10]; pH 7): 78.6 ± 2.0 | % Monomer ([11]; expelled through 27 gauge needle, REMICADE 224-230 mg/mL (per agent)): 99.1 ± 0.0% | % Monomer ([11]; expelled through 29 gauge needle, REMICADE 224-230 mg/mL (per agent)): 99.0 ± 0.0% | % Monomer ([11]; expelled through 31 gauge needle, REMICADE 224-230 mg/mL (per agent)): 99.0 ± 0.0% | % Monomer ([11]; pre-syringe, REMICADE 220-230 mg/mL (per agent)): 99.2 ± 0.32% | Syringe Force ([12]; 27 gauge needle): 21.9 N | Syringe Force ([12]; 29 gauge needle): 30.4 N | Syringe Force ([12]; 31 gauge needle): 38.4 N

camphorsulfonic acid lysine [CSAL]
Fold decrease in viscosity in the presence of CSAL ([13]; 0.25 M CSAL vs original excipients, 80 ± 5 mg/mL mAb, pH 7.0, 25° C.): 2.7 fold | Viscosity ([13]; 80 ± 5 mg/mL mAb, pH 7.0, 25° C., formulation per label (CSAL 0.25M)): 3.08 ± 0.18 cP | Magnitude of viscosity-lowering effect (replacement of PB with CSAL) ([13]; 100±5 mg/mL mAb, 0.25 M, 25° C., pH 7.0): 1.1 fold | Fold viscosity reduction (compared to no CSAL present) ([13]; 155 ± 5 mg/mL mAb, pH 7.0, 25° C., [CSAL] 0 M): 1 fold | Viscosity ([13]; 155 ± 5 mg/mL mAb, pH 7.0, 25° C., [CSAL] 0 M (0.25 M phosphate buffer control)): 154 ± 0 cP | Fold viscosity reduction (compared to no CSAL present) [13, 16]: 8.4 fold | Viscosity [13, 16]: 18.3 ± 0.0 cP | Fold viscosity reduction (compared to no CSAL present) [13, 17]: 10.3 fold | Viscosity [13, 17]: 14.9 ± 0.1 cP | Fold viscosity reduction (compared to no CSAL present) [13, 18]: 12.1 fold | Viscosity [13, 18]: 12.7 ± 0.1 cP | Viscosity ([13]; 222 ± 5 mg/mL mAb, pH 7.0, 0.25M agent, 25° C.): 109 ± 1 cP | Viscosity ([13]; 225 ± 5 mg/mL mAb, pH 7.0, 0.25M agent, 20° C.): 166 ± 2 cP | Viscosity ([13]; 225 ± 5 mg/mL mAb, pH 7.0, 0.25M agent, 25° C.): 109 ± 1 cP | Viscosity ([13]; 225 ± 5 mg/mL mAb, pH 7.0, 0.25M agent, 30° C.): 78.4 ± 1.5 cP | Magnitude of viscosity-lowering effect (replacement of PB with CSAL) ([13]; pH 7): 10.3 fold | Fold Reduction ([13]; vs phosphate buffer, 222 ± 5 mg/mL mAb, pH 7.0, 0.25M agent, 25° C.): 10.4 fold | Magnitude of viscosity-lowering effect (replacement of PB with CSAL) ([1]; 80 mg/mL mAb, 25° C., pH 7.0): 2.1 fold | Viscosity ([1]; 210 mg/mL mAb, 0.25 M agent, 25° C., pH 7.0): 63.0 ± 1.8 cP | Fold decrease in viscosity in the presence of CSAL ([1]; 0.25 M CSAL vs original excipients, 101 ± 5 mg/mL mAb, pH 7.0, 25° C.): 1.5 fold | Fold reduction in viscosity ([1]; 0.25 M CSAL vs phosphate buffer, 205 ± 5 mg/mL mAb): 1.8 fold | Viscosity ([1]; 101 ± 5 mg/mL mAb, pH 7.0, 25° C., formulation per label (CSAL 0.25M)): 4.03 ± 0.24 cP | Viscosity ([1]; 200 ± 5 mg/mL mAb, pH 7.0, 25° C., [Salt] 0.25 M of anion, C & P viscometer): 54.9 ± 0.9 cP | Viscosity, Biosimilar AVASTIN ® ([1]; 205 ± 5 mg/mL mAb, phosphate buffer or 0.25M CSAL, 25° C., pH 7.0): 54.9 ± 0.9 cP | Viscosity ([1]; 228 ± 5 mg/mL mAb, agent 0.25 M, 25° C., pH 7.0): 113 ± 0 cP | Viscosity ([1]; 230 ± 5 mg/mL mAb, pH 7.0, 0.25M, 20° C.): 152 ± 0 cP | Viscosity ([1]; 230 ± 5 mg/mL mAb, pH 7.0, 0.25M, 25° C.): 107 ± 4 cP | Viscosity ([1]; 230 ± 5 mg/mL mAb, pH 7.0, 0.25M, 30° C.): 95.5 ± 5.4 cP | Viscosity ([1]; 230 ± 5 mg/mL mAb, pH 7.0, […], 20° C.): 157 ± 0 cP | Viscosity ([1]; 230 ± 5 mg/mL mAb, pH 7.0, […], 25° C.): 113 ± 0 cP | Viscosity ([1]; 230 ± 5 mg/mL mAb, pH 7.0, […], 30° C.): 91.7 ± 3.3 cP | Magnitude of viscosity-lowering effect (replacement of PB with CSAL) ([1]; 230±5 mg/mL mAb, 25° C., pH 7.0): 3.7 fold | Viscosity ([14]; 170 mg/mL gamma globulin, C & P): 10.3 ± 1.0 cP | Viscosity ([14]; 170 mg/mL gamma globulin, microfluidic): 10.6 ± 0.1 cP | Viscosity ([14]; 260 mg/mL gamma globulin, C & P): 93.5 ± 1.2 cP | Viscosity ([14]; 260 mg/mL gamma globulin, microfluidic): 85.3 ± 0.3 cP | Viscosity ([14]; 310 mg/mL gamma globulin, C & P): 223 ± 1 cP | Viscosity ([14]; 310 mg/mL gamma globulin, microfluidic): 203 ± 2 cP | Viscosity ([6]; 166 ± 4 mg/mL REMICADE, 0.25M agent, pH 7.0): 27.4 ± 0.2 cP | Viscosity ([6]; 222 ± 6 mg/mL REMICADE, 0.25M agent, pH 7.0): 95.3 ± 1.1 cP | Fold reduction in viscosity ([15]; 0.25 M CSAL vs phosphate buffer): 3.3 fold | Viscosity, Branded AVASTIN ® ([15]; phosphate buffer or 0.25M CSAL, 25° C., pH 7.0): 46.7 ± 0.9 cP
